According to patent EP2913333A1 (priority 2014, dated 2015):
Counter-ions that a name gives are not always drawn. Like-named read-outs stand apart in the source and are kept apart here.

Legend:
[1] = molecular target: T1, E. feacium DltA (Enterococcus faecium, UniProt Q3XZT7); assay: in vitro DltA activity assay (luminescence, IC50 determination); type: biochemical
T1 sequence (Q3XZT7 1-504): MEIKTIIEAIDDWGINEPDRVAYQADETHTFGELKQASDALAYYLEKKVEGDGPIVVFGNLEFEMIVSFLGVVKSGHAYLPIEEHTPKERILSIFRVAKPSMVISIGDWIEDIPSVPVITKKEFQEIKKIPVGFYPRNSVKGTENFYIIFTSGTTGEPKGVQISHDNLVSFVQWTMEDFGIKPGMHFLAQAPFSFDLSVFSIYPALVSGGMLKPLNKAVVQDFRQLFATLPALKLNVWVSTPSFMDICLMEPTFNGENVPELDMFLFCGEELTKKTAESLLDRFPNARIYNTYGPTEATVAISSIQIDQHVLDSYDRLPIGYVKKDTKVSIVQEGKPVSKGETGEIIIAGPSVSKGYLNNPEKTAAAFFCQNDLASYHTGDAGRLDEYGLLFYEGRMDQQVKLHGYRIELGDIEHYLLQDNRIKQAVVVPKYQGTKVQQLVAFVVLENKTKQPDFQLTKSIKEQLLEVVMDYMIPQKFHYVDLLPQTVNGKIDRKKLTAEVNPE
Method: (§1) The effect of the compounds of the invention on DltA enzymes has been based on the measure of their inhibition of DltA activity in vitro. To this end, recombinant proteins DltA were expressed and purified after cloning of the genes of S. aureus, E. faecalis, E. faecium and S. agalactiae as described thereafter. The capacity of the compounds of the invention to inhibit DltA enzymatic activity was assessed using the DltA assays as described below: • The dltA gene was amplified from chromosomal DNA of S. aureus, E. faecalis, E. faecium and S. agalactiae and introduced into E. coli BL21 (Invitrogen, Carlsbad, CA) following manufacturer's instruction. Bacteria were grown at 37°C under aerobic conditions and isopropyl-beta-D-thiogalactopyranoside (IPTG) was added to 0.5-1 mM when OD600 of the bacterial culture had reached 0.5. After a further incubation for 3 hours, cells were harvested by centrifugation. Purification of the recombinant DltA protein was performed by affinity chromatography on nickel-nitrilotriacetic acid (Ni-NTA) column following manufacturer's instructions (Qiagen). Fractions containing recombinant DltA protein were adjusted to 50% glycerol and stored at -20°C until use.
(§2) The binding potency of the inhibitors against DltA enzyme was assessed by IC50 determination in an in vitro DltA activity assay. The assay buffer "AB" contained 50 mM Hepes pH8.0, 10mM MgCl2, 50mM KCI, 0.012% Triton-X100, 10mM DTT and 100nM Myelin-basic protein. The following components were added in a white polystyrene Costar plate up to a final volume of 30µL: 3µL DMSO, or inhibitor dissolved in DMSO and 27µL DltA enzyme in AB. After 30min of preincubation at room temperature, 30µL of Substrates mix in AB were added in each well to a final volume of 60µL. This reaction mixture was then composed of DltA (produced in house from S. aureus, E. faecalis, E. faecium and S. agalactiae), 0.5mM D-Alanine (Sigma), 0.5-5µM ATP (Sigma) and 0.05 u/ml inorganic pyrophosphatase (Sigma) in assay buffer. After typically 1-2hours of incubation at room temperature (conversion rate around 30%), 30µL of the revelation mix were added to a final volume of 90µL, including the following constituents at the respective final concentrations: 10000 u/ml luciferase (Sigma), 30µM D-luciferin (Sigma), 100µM N-acetylcysteamine (Aldrich). Luminescence intensity was immediately measured on a Fluostar Optima (BMG) (excitation 360nm, emission 520nm) and converted into inhibition percentages.
(§3) For compounds interfering with the luminescent signal (quenching), the same experiment without DltA enzyme was performed to allow quenching determination and correction.

[2] = molecular target: T2, S. aureus DltA (Staphylococcus aureus, UniProt Q2FZW6); assay: as above; type: biochemical
T2 construct: made in house; host or cells: E. coli BL21
T2 sequence (Q2FZW6 1-485): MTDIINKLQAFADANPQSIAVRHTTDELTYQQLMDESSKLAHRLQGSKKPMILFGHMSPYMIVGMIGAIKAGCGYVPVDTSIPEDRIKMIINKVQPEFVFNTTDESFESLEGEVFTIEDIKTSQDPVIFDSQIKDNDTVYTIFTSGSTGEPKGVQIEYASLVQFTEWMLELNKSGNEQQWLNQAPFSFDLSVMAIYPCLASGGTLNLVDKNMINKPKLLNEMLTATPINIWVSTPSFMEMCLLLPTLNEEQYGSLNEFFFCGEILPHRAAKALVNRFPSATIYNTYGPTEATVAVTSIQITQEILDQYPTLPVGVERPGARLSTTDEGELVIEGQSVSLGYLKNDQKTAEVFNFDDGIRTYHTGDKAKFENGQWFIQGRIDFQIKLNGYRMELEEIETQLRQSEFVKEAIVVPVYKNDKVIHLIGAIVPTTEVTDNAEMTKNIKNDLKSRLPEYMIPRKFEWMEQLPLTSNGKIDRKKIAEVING
Method: as §1, §2, §3

[3] = molecular target: T3, S. Agalactiae DltA (Streptococcus agalactiae serotype III, UniProt Q8VM67); assay: biochemical
T3 sequence (Q8VM67 1-511): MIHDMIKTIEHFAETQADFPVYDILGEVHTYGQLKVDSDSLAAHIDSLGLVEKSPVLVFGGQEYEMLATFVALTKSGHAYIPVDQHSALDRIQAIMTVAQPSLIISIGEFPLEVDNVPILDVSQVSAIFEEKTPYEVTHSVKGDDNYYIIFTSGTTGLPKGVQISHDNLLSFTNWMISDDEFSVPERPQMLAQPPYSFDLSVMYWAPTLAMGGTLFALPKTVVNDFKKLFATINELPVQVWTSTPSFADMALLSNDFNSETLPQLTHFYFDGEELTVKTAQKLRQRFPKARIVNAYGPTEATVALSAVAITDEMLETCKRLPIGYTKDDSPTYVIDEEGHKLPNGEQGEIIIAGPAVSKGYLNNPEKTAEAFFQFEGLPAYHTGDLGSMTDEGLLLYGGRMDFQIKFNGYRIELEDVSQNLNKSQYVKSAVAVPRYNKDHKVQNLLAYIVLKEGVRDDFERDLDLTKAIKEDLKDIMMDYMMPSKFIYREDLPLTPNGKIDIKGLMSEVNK
Method: as §1, with “To” for “The effect of the compounds of the invention on DltA enzymes has been based on the measure of their inhibition of DltA activity in vitro. To”
as §2, §3

[4] = molecular target: T4, E. feacalis DltA (Enterococcus faecalis, UniProt Q830N0); assay: biochemical
T4 sequence (Q830N0 1-506): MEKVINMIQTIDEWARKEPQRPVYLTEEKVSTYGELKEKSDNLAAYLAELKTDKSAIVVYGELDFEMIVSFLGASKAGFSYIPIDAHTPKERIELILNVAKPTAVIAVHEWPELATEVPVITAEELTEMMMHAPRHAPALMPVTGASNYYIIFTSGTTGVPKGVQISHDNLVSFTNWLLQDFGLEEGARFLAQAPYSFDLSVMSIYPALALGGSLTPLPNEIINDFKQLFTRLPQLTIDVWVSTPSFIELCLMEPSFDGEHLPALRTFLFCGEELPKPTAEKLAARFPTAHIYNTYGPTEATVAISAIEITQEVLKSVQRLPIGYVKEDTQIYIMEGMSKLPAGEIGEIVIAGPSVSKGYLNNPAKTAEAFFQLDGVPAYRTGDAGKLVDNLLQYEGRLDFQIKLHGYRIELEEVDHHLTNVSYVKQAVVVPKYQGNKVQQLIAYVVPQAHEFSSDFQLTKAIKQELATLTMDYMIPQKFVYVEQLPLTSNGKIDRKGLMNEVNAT
Method: as §1, with “To” for “The effect of the compounds of the invention on DltA enzymes has been based on the measure of their inhibition of DltA activity in vitro. To”
as §2, §3

[5] = recombinant DltA, 30min preincubation at room temperature, 0.5mM D-Alanine, 0.5-5µM ATP, read-out: E. feacium DltA IC50

| Compound | IC50 [1, 5] [nM] | IC50 [2] [nM] | IC50 [3] [nM] | IC50 [4] [nM] | IC50 [1] [nM] |
| --- | --- | --- | --- | --- | --- |
| O=c1[nH]cnc2c(-c3ccc4c(c3)ncn4C3CCCCC3)cn(C3CCCC(O)C3)c12 (racemic) [Example 70A, 7-(1-Cyclohexyl-1H-benzimidazol-5-yl)-5-(3-hydroxy-cyclohexyl)-3,5-dihydro-pyrrolo[3,2-d]pyrimidin-4-one] | 920 | 660 | 2400 | 570 | – |
| O=c1[nH]cnc2c(-c3ccc4c(c3)ncn4C3CCCCC3)cn(C3CCC(O)C3)c12 (racemic) [Example 71A, 7-(1-Cyclohexyl-1H-benzimidazol-5-yl)-5-(3-hydroxy-cyclopentyl)-3,5-dihydro-pyrrolo[3,2-d]pyrimidin-4-one] | 890 | 360 | 2700 | 360 | – |
| O=c1[nH]cnc2c(-c3ccc4c(c3)ncn4C3CCCCC3)sc(N3CC[C@H](CO)C3)c12 [Example 7, 7-(1-Cyclohexyl-1H-benzoimidazol-5-yl)-5-((S)-3-hydroxymethyl-pyrrolidin-1-yl)-3H-thieno[3,4-d]pyrimidin-4-one] | 120 | 70 | 3200 | 37 | – |
| O=c1[nH]cnc2c(-c3ccc4c(c3)ncn4C3CCCCC3)sc(N3CCC(CCO)C3)c12 (stereo not shown) [Example 11, 7-(1-Cyclohexyl-1H-benzoimidazol-5-yl)-5-[3-(2-hydroxy-ethyl)-pyrrolidin-1-yl]-3H-thieno[3,4-d]pyrimidin-4-one] | 190 | 140 | 5400 | 120 | – |
| O=c1[nH]cnc2c(-c3ccc4c(c3)ncn4C3CCCCC3)sc(N3CCC(CO)(CO)C3)c12 [Example 13, 5-(3,3-Bis-hydroxymethyl-pyrrolidin-1-yl)-7-(1-cyclohexyl-1H-benzoimidazol-5-yl)-3H-thieno[3,4-d]pyrimidin-4-one] | 140 | 44 | 980 | 41 | – |
| O=c1[nH]cnc2c(-c3ccc4c(c3)ncn4C3CCCCC3)sc(N3CC4C(O)C4C3)c12 (stereo not shown) [Example 17, 7-(1-Cyclohexyl-1H-benzoimidazol-5-yl)-5-(6-hydroxy-3-aza-bicyclo[3.1.0]hex-3-yl)-3H-thieno[3,4-d]pyrimidin-4-one] | 190 | 220 | 2200 | 85 | – |
| O=c1[nH]cnc2c(-c3ccc4c(c3)ncn4C3CCCCC3)sc(N3CC4CNCC4C3)c12 (stereo not shown) [Example 25, 7-(1-Cyclohexyl-1H-benzoimidazol-5-yl)-5-(hexahydro-pyrrolo[3,4-c]pyrrol-2-yl)-3H-thieno[3,4-d]pyrimidin-4-one hydrochloride] | 88 | 39 | 630 | 22 | – |
| O=c1[nH]cnc2c(-c3ccc4c(c3)ncn4C3CCCCC3)sc(N3CCNCC3)c12 [Example 28, 7-(1-cyclohexyl-1H-benzoimidazol-5-yl)-5-piperazin-1-yl-3H-thieno[3,4-d]pyrimidin-4-one hydrochloride] | 160 | 150 | 1200 | 48 | – |
| O=c1[nH]cnc2c(-c3ccc4c(c3)ncn4C3CCCCC3)sc(N3C[C@@H]4[C@@H](CO)[C@@H]4C3)c12 [Example 30, 7-(1-Cyclohexyl-1H-benzimidazol-5-yl)-5-((1R,5S,6R)-6-hydroxymethyl-3-aza-bicyclo[3.1.0]hex-3-yl)-3H-thieno[3,4-d]pyrimidin-4-one] | 320 | 220 | 2000 | 160 | – |
| O=c1[nH]cnc2c(-c3ccc4c(c3)ncn4C3CCCCC3)sc(N3CC4CNCC4(CO)C3)c12 (stereo not shown) [Example 34, 7-(1-cyclohexyl-1H-benzoimidazol-5-yl)-5-hydroxymethyl-hexahydro-pyrrolo[3,4-c]pyrrol-2-yl)-3H-thieno[3,4-d]pyrimidin-4-one hydrochloride] | – | 27 | 400 | 14 | 61 |
| O=c1[nH]cnc2c(-c3ccc4c(c3)ncn4C3CCCCC3)sc(N3C[C@H](CO)[C@@H](CO)C3)c12 [Example 35, 5-((3R,4R)-3,4-Bis-hydroxymethyl-pyrrolidin-1-yl)-7-(1-cyclohexyl-1H-benzoimidazol-5-yl)-3H-thieno[3,4-d]pyrimidin-4-one] | 93 | 54 | 870 | 39 | – |
| CC1CCCC(n2cnc3cc(-c4sc(N5CC[C@H](CO)C5)c5c(=O)[nH]cnc45)ccc32)C1 (stereo partly shown) [Example 48] | 110 | 68 | – | – | – |
